The values that follow come from patent EP1203770A1 (priority 1992, dated 1994).

The target of one data set is T1, HIV-1 protease (Human immunodeficiency virus type 1 group M subtype B, UniProt P04585).
T1 construct: The protease (or proteinase), consisting of only 99 amino acids, is among the smallest enzymes known
Nature of the data set: In vitro HIV protease inhibitory assay (HIV Protease FITC Assay). The format is biochemical. As to conditions: for inhibition at 1 µM / inhibition at 10 µM / inhibition at 100 µM / inhibition at 0.123 µM / inhibition at 0.37 µM / inhibition at 1.1 µM / inhibition at 3.3 µM / inhibition at 30 µM: read-out: HIV-1 Protease % Inhib. The procedure, abridged:
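Percent inhibition was read as fluorescence after avidin-bead capture and filtration separated FITC cleavage product from biotinylated substrate. Enzyme and substrate reacted 1 h, RT, dark, at pH 5.5 (0.1 M sodium acetate, 1.0 M NaCl, 0.05% NP-40).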

Data set [1] has as its system testosterone 5α-reductase. Kind of data set: In vitro testosterone 5α-reductase inhibitor assay. In kind it is biochemical. As to conditions: at a dose of at least 0.1 mM; dog and rat prostates. How it is done: The following five (5) compounds of the present invention were tested in an in vitro testosterone 5α-reductase inhibitor assay: 3-(α-Ethylbenzyl)-6-(α-ethylphenethyl)-4-hydroxy-2H-pyran-2-one; 6-(1-Benzyl-propyl)-3-(cyclopropyl-phenyl-methyl)-4-hydroxy-pyran-2-one; 3-(α-Ethylbenzyl)-6-(α-ethylbenzyl)-4-hydroxy-2H-pyran-2-one; 3-(α-Ethylbenzyl)-6-phenethyl-4-hydroxy-2H-pyran-2-one; 4-Hydroxy-3-(1-phenylpropyl)-6-[1-[(tetrahydro-2H-pyran-3-yl)methyl]propyl]-2H-pyran-2-one. This assay is very similar to those described in the following references, except for the use of dog and rat prostates in place of human prostates: Proc. Natl. Acad. Sci. USA, Vol. 90: 5277-5281 (1993); J. Steroid. Biochem. Molec. Biol., Vol. 44, No. 2, pp. 121-131 (1993). All five (5) compounds had activity in this assay at a dose of at least 0.1 mM.

In a further data set the test system is HIV-1IIIB. Nature of the data set: Inhibition of retroviral replication in infected human T-cell lines (MT4, H9). As to conditions: e.g., MT4 and H9, infected with HIV-1IIIB. In kind it is cell-based. How it is done:
Several compounds of the present invention, such as 3-(alpha-ethylbenzyl)-6-(alpha-ethylphenethyl)-4-hydroxy-2H-pyran-2-one, were tested in known human cell lines, such as human T-cell lines, e.g., MT4 and H9, which were infected with HIV-1IIIB, and certain of these compounds were further tested in peripheral blood mononuclear cells (PBMC), which were infected with HIV-1JRCSF (a clinical isolate).

Data set [2] in a line: Four week oral drug safety and toxicity study in beagle dogs (prostate size and weight). The format is in vivo. An excerpt: Daily oral doses were divided into two (2) equal doses with at least seven (7) hours between the morning and afternoon dose. Parameters evaluated included twice daily clinical observations; daily evaluation of food and water consumption; twice weekly body weights; pretest and dosage day (dd) 15 or 16 and 24 or 25 electrocardiograms; pretest and dd 23 or 24 ophthalmology examinations; pretest and dd 1, 8, 14, 21 and 28 plasma drug levels; pretest and dd 8, 14, and 28 hemograms and serum chemistries; pretest and dd 14 and 28 urinalyses; terminal body weights, gross necropsy observations and absolute and relative organ weights; and histopathologic evaluation of organs and tissues.

Setting [3] is: male dogs, group 2, 50 mg/kg/day oral, 28 days, n=3.
[4] abbreviates: male dogs, group 3, 100 mg/kg/day oral, 28 days, n=3.
Setting [5] is: male dogs, group 4, 200 mg/kg/day oral, 28 days, n=3.
The mark [6] stands for this setting: male dogs, group 5, 400 mg/kg/day oral, 28 days, n=3.
Where [7] appears, read: repeat study, 400 mg/kg/day, 4 dogs.
The mark [8] stands for this setting: repeat study, male dogs, group 7, 400 mg/kg/day, n=4.

Entries after “also recorded” stand apart in the source; their conditions may differ. Like-named read-outs stand apart in the source and are kept apart here.

Take `CCC(c1ccccc1)c1c(O)cc(CCc2ccccc2)oc1=O` (stereo not drawn) [Example 3, 3-(α-ethylbenzyl)-6-phenethyl-4-hydroxy-2H-Pyran-2-one]: the inhibition at 1 µM at HIV-1 protease (HIV-1 Dose 1.000 uM) came out at 19%. Also, the inhibition at 10 µM at HIV-1 protease (HIV-1 Dose 10.000 uM) was found to be 67.4%. Besides, the “activity in testosterone 5α-reductase inhibitor assay” value in data set [1] was “had activity”.

In general, IC50 refers to the concentration that gives 50% inhibition. On HIV-1 protease, `CCC(Cc1ccccc1)c1cc(O)c(C(CC)c2ccccc2)c(=O)o1` (stereo not drawn) [Example 13, 3-(α-ethylbenzyl)-6-(αethylphenethyl)-4-hydroxy-2H-Pyran-2-one] came in with an IC50 of 1.3 µM. Besides, the inhibition at 1 µM at HIV-1 protease (HIV-1 Dose 1.000 uM) was determined as 79.5%. Also, at HIV-1 protease (HIV-1 Dose 10.000 uM), the inhibition at 10 µM is 92%. On HIV-1 protease (HIV-1 Dose 100.000 uM), the inhibition at 100 µM is 72%. Also, in the data set on HIV-1IIIB, the retroviral replication result is on record as “found to inhibit retroviral replication”. For the same compound, in data set [1], the “activity in testosterone 5α-reductase inhibitor assay” value was “had activity”. Further, in data set [2] (high dose versus control), the “light microscopic examination of testes, adrenals and pituitaries” value is on record as “did not show drug-related changes”. For the same compound, the “Absolute Weight (mean prostate weight)” value in data set [2] (setting [3]) was found to be 8.87 GMs; in data set [2] (setting [4]), 7.55 GMs; in data set [2] (setting [5]), 4.58 GMs; in data set [2] (setting [6]), 4.43 GMs; in data set [2] (setting [8]), 5.65 GMs. The “Relative Weight* (mean prostate weight)” value stood at 0.088 % body weight in data set [2] (setting [3]); 0.074 % body weight in data set [2] (setting [4]); 0.046 % body weight in data set [2] (setting [5]); 0.044 % body weight in data set [2] (setting [6]); 0.055 % body weight in data set [2] (setting [8]). For the same compound, the “prostate size and weight” value in data set [2] (male dogs, oral 50 to 400 mg/kg/day, 28 days) is “dose-related decrease in prostate size and weight; also recorded: dose related decrease in prostate size and weight”. The “dogs with marked decreases of prostate weight” value in data set [2] (setting [7]) is 1/4. In data set [2] (setting [7]), the “high dose dogs with lower absolute and relative prostate weights than controls” value was 2/4.

With `CCC(Cc1ccccc1)c1cc(O)c(C(c2ccccc2)C2CC2)c(=O)o1` (stereo not shown) [Example 86, 6-(1-Benzyl-propyl)-3-(cyclopropyl-phenyl-methyl)-4-hydroxy-pyran-2-one], the inhibition at 1 µM at HIV-1 protease (HIV-1 Dose 1.000 uM) turned out to be 58.1%. Moreover, the inhibition at 10 µM on HIV-1 protease (HIV-1 Dose 10.000 uM) was found to be 83%. Moreover, on HIV-1 protease (HIV-1 Dose 100.000 uM), the inhibition at 100 µM is 55.3%. Also, the “activity in testosterone 5α-reductase inhibitor assay” value in data set [1] is on record as “had activity”.

As usually defined, the Ki is the dissociation constant of the complex between target and ligand, obtained from inhibition or displacement. Turning to `CCC(CC1CCCOC1)c1cc(O)c(C(CC)c2ccccc2)c(=O)o1` (stereo not shown) [Example 135, 4-Hydroxy-3-(1-phenylpropyl)-6-[1-[(tetrahydro-2H-pyran-3-yl)methyl]propyl]-2H-pyran-2-one], the inhibition at 0.123 µM on HIV-1 protease (HIV-1 Dose 0.123 uM) is 12.4%. The inhibition at 0.37 µM at HIV-1 protease (HIV-1 Dose 0.370 uM) is 26.5%. On HIV-1 protease (HIV-1 Dose 1.100 uM), the inhibition at 1.1 µM is 65.6%. At HIV-1 protease (HIV-1 Dose 3.300 uM), the inhibition at 3.3 µM came to 87.9%. For the same compound, at HIV-1 protease (HIV-1 Dose 10.000 uM), the inhibition at 10 µM was 103%. The inhibition at 30 µM on HIV-1 protease (HIV-1 Dose 30.000 uM) was 99.9%. Also, on HIV-1 protease (read-out: HIV-1 FITC Ki), the Ki turned out to be 0.045 µM. Besides, in data set [1], the “activity in testosterone 5α-reductase inhibitor assay” value is “had activity”.

For the compound `CCC(Cc1ccccc1)c1cc(O)c(C(c2cccc(NS(=O)(=O)c3ccc(C)cc3)c2)C2CC2)c(=O)o1` (stereo not shown) [Example 246], the inhibition at 0.123 µM at HIV-1 protease (HIV-1 Dose 0.123 uM) was 24.7%. The inhibition at 0.37 µM on HIV-1 protease (HIV-1 Dose 0.370 uM) was 60.1%. In addition, the inhibition at 1.1 µM at HIV-1 protease (HIV-1 Dose 1.100 uM) worked out at 79.9%. The inhibition at 3.3 µM on HIV-1 protease (HIV-1 Dose 3.300 uM) came to 92.3%. For the same compound, the inhibition at 10 µM at HIV-1 protease (HIV-1 Dose 10.000 uM) stood at 92.7%. In addition, at HIV-1 protease (HIV-1 Dose 30.000 uM), the inhibition at 30 µM was determined as 93.3%. At HIV-1 protease (read-out: HIV-1 FITC Ki), the Ki worked out at 0.0216 µM.

For the compound `CCC(Cc1ccccc1)c1cc(O)c(C(c2cccc(NS(=O)(=O)CC)c2)C2CC2)c(=O)o1` (stereo not shown) [Example 247], the inhibition at 0.123 µM on HIV-1 protease (HIV-1 Dose 0.123 uM) came out at 14.1%. Also, the inhibition at 0.37 µM at HIV-1 protease (HIV-1 Dose 0.370 uM) stood at 47%. On HIV-1 protease (HIV-1 Dose 1.100 uM), the inhibition at 1.1 µM came to 73.1%. Further, the inhibition at 3.3 µM at HIV-1 protease (HIV-1 Dose 3.300 uM) came out at 86.7%. Also, the inhibition at 10 µM at HIV-1 protease (HIV-1 Dose 10.000 uM) came out at 96.1%. Besides, the inhibition at 30 µM at HIV-1 protease (HIV-1 Dose 30.000 uM) came out at 97%. Further, the Ki at HIV-1 protease (read-out: HIV-1 FITC Ki) was 0.0304 µM.

Consider `CCC(Cc1ccccc1)c1cc(O)c(C(c2cccc(NC(=O)Cc3cccnc3)c2)C2CC2)c(=O)o1` (stereo not drawn) [Example 248, 3-(α-Cyclopropyl-meta-(3-pyridylacetylamino)benzyl)-6-(α-ethylphenethyl)-4-hydroxy-2H-pyran-2-one], for which the inhibition at 0.123 µM at HIV-1 protease (HIV-1 Dose 0.123 uM) was under 10%. For the same compound, the inhibition at 0.37 µM at HIV-1 protease (HIV-1 Dose 0.370 uM) was 31.6%. In addition, the inhibition at 1.1 µM at HIV-1 protease (HIV-1 Dose 1.100 uM) turned out to be 63.7%. For the same compound, the inhibition at 3.3 µM at HIV-1 protease (HIV-1 Dose 3.300 uM) turned out to be 86.5%. Also, the inhibition at 10 µM on HIV-1 protease (HIV-1 Dose 10.000 uM) stood at 101%. In addition, at HIV-1 protease (HIV-1 Dose 30.000 uM), the inhibition at 30 µM amounted to 99.2%. The Ki at HIV-1 protease (read-out: HIV-1 FITC Ki) was 0.0617 µM.

For the compound `CCC(Cc1ccccc1)c1cc(O)c(C(c2cccc(NC(=O)Cc3ccncc3)c2)C2CC2)c(=O)o1` (stereo not drawn) [Example 249, 3-(α-Cyclopropyl-meta-(4-pyridylacetylamino)benzyl)-6-(α-ethylphenethyl)-4-hydroxy-2H-pyran-2-one], on HIV-1 protease, affinity was put at a Ki of 0.0444 µM, the inhibition at 0.123 µM was under 10%, the inhibition at 0.37 µM stood at 40% and the inhibition at 1.1 µM amounted to 70.3%. Also, at HIV-1 protease, the inhibition at 3.3 µM stood at 88.5%, the inhibition at 10 µM worked out at 103% and the inhibition at 30 µM worked out at 107%.

As to `C=CC(c1ccccc1)c1c(O)cc(C)oc1=O` (stereo not shown) [PREPARATION 10, 4-Hydroxy-6-methyl-3-(1'-phenyl-2'-propenyl)-2-pyrone], on HIV-1 protease, the HIV activity entry is reported as “found to have HIV activity”. Moreover, the inhibition at 1 µM at HIV-1 protease (HIV-1 Dose 1.000 uM) was under 10%. For the same compound, at HIV-1 protease (HIV-1 Dose 10.000 uM), the inhibition at 10 µM is under 10%. The inhibition at 100 µM on HIV-1 protease (HIV-1 Dose 100.000 uM) is 43.5%.

“Dimethyl 3-[(4-hydroxy-2-oxo-6-phenyl-2H-1-pyran-3-yl)(3-nitrophenyl)methyl] -1,3-propandioate [Example 29]”: the entries for the “HIV-1 Protease % Inhib” value at HIV-1 protease (HIV-1 Dose 1.000 uM), on HIV-1 protease (HIV-1 Dose 10.000 uM) and at HIV-1 protease (HIV-1 Dose 100.000 uM) were under 10%, under 10% and 32.16%, respectively.

Regarding “Dimethyl 3-[(4-hydroxy-2-oxo-6-phenyl-2H-1-pyran-3-yl)(4-nitrophenyl)methyl] - 1,3-propandioate [Example 28]”, the “HIV-1 Protease % Inhib” value is under 10% on HIV-1 protease (HIV-1 Dose 1.000 uM), 15.07% at HIV-1 protease (HIV-1 Dose 10.000 uM) and 76.68% on HIV-1 protease (HIV-1 Dose 100.000 uM).
